How the values were obtained:
ROCK2 = ROCK2 (Homo sapiens, UniProt O75116); experiment: ROCK2 kinase inhibitor activity test (HTRF); type: biochemical; details: ROCK2 1 nM, substrate 500 nM, ATP 6 uM, 1.5 hours at room temperature, read-out: ROCK2 kinase inhibitor activities (IC50)
Experimental: ROCK2 Kinase Inhibitor Activity Test
1) 4× ROCK2 reaction solution, 4×ATP reaction solution, 4× substrate solution, and 4× compound solution were prepared according to experimental requirements.
2) 2.5 μL of 4× kinase solution and 2.5 μL of diluted 4× test compound solutions with different concentration gradients were added to a 384-well plate. 2 replicate wells were provided for each concentration, and an enzyme solution blank control group and a negative control group (DMSO group) were provided at the same time. Centrifugation was performed at 1000 rpm for 1 minute, and the enzyme and the compounds were mixed. 2.5 μL of 4× substrate solution was added to the 384-well plate, centrifugation was performed at 1000 rpm for 1 minute, 2.5 μL of 4× ATP solution was added to the 384-well plate, centrifugation was performed at 1000 rpm for 1 minute to start the enzyme reaction, and incubation was performed at room temperature for 1.5 hours.
The final concentration of each component of the ROCK2 reaction was: ROCK2: 1 nM, substrate: 500 nM, ATP: 6 uM, and the final concentration range of the test compounds was: 100 nM to 5 pM.
3) 4× Streptavidin-XL-665 detection solution was prepared according to experimental requirements.
4) After the enzyme reaction was completed, 5 ul of 4× Streptavidin-XL-665 detection solution was added to each well of the 384-well plate, and centrifugation was performed at 1000 rpm for 1 minute. 5 μL of 4×STK Antibody-cryptate detection antibody solution was added to each well of the 384-well plate, centrifugation was performed at 1000 rpm for 1 minute, and incubation was performed for 1 hour at room temperature.
5) After antibody incubation was completed, the signal value of each well was measured by the HTRF program on an Envision plate reader.
1) Taking the enzyme solution blank control group as 100% inhibition rate and the negative control group (DMSO group) as 0% inhibition rate, the percentage inhibition rate corresponding to each concentration of the test compound was calculated.
2) In the GraphPad Prism software, a nonlinear regression analysis was performed on the logarithm of the concentrations of the test compounds and the corresponding percentage inhibition rates to obtain the half-inhibitory concentrations (IC50) of the test compounds.
The ROCK2 kinase inhibitor activities (IC50) of the compounds detected by this method are as follows: […]

[1] = system: Phospho-Myosin Light Chain2 (Ser19); experiment: Cell activity test: MLC2 (Ser19) phosphorylation in A7R5 cells (Western blot); type: cell-based; details: starved 20 hours, compound treatment 60 minutes, MLC2 (Ser19) phosphorylation corrected with GAPDH, read-out: cell activities (IC50)
Experimental: Example 43: Cell Activity Test
1) The A7R5 cells in the logarithmic growth phase were digested, 2E5 cells per well were inoculated in a 6-well plate and incubated overnight at 37° C. with 5% CO2, and the cell culture medium was replaced with a starvation medium containing 0.05% FBS after 24 hours. The cells were starved for 20 hours.
2) The starvation medium was removed, the cells were treated with the prepared compound concentration gradient for 60 minutes, VIP-5021 (10 uM) was set as the positive control, and the DMSO group was set as the negative control.
3) After the compound treatment, the compound solutions were aspirated, washed with PBS two times, 100 ul of cell lysate was added to each well, the cells were gently scraped with a cell scraper, and the cells were transferred to a centrifuge tube and lysed on ice for 60 minutes.
4) After the lysis, centrifugation was performed at 4° C. and 14000 rpm for 15 minutes, the lysate supernatant was collected, protein quantification was performed using the BCA method, the protein concentration was adjusted, the loading buffer was added according to proportion, and treatment was performed at 100° C. for 10 minutes to denature the protein.
5) An electrophoresis equipment was assembled, 20 ug of total protein was loaded per sample, the voltage was fixed at 125 V, and electrophoresis was performed for 90 minutes. After the electrophoresis was completed, the membrane transfer system was assembled with a fixed current of 300 mA and the membrane was transferred for 120 minutes. After the membrane transfer was completed, the PVDF membrane was removed and washed with PBS two times. A blocking solution was added to block at room temperature for 60 minutes. The blocking solution was removed, a solution containing the primary antibody (Phospho-Myosin Light Chain2 (Ser19)) (antibody dilution ratio 1:1000) was added, GAPDH was selected as internal control, and incubation was performed overnight at 4° C.
6) Washing was performed with PBST three times, HRP-antibody containing the corresponding species (secondary antibody dilution ratio 1:2000) was added, incubation was performed at room temperature for 60 minutes, and washing was performed with PBST three times. HRP chemiluminescence substrate was prepared, and dropwisely added on the PVDF membrane based on 0.1 mL per square centimeter to react for 30 seconds, and the chemiluminescence signal was collected with a gel imager (ChemiDoc XRS+(BIO-RAD)).
7) Each band was quantitatively analyzed using image J software, and the phosphorylated protein level of Phospho-Myosin Light Chain2 (Ser19) in each sample was corrected using GAPDH expression as internal reference.
1) Taking the MLC2 (Ser19) protein phosphorylation level of the highest concentration compound sample as 100% inhibition rate, and taking the MLC2 (Ser19) protein phosphorylation level of the negative control group (DMSO group) as 0% inhibition rate, the percentage inhibition rate corresponding to each concentration of the test compounds was calculated.
2) In the GraphPad Prism software, a nonlinear regression analysis was performed on the logarithm of the concentrations of the test compounds and the corresponding percentage inhibition rates to obtain the half-inhibitory concentrations (IC50) of the cell levels of the test compounds.
The cell activities (IC50) of the compounds detected by this method are as follows: […]

ROCK2, sequence (O75116 whole entry): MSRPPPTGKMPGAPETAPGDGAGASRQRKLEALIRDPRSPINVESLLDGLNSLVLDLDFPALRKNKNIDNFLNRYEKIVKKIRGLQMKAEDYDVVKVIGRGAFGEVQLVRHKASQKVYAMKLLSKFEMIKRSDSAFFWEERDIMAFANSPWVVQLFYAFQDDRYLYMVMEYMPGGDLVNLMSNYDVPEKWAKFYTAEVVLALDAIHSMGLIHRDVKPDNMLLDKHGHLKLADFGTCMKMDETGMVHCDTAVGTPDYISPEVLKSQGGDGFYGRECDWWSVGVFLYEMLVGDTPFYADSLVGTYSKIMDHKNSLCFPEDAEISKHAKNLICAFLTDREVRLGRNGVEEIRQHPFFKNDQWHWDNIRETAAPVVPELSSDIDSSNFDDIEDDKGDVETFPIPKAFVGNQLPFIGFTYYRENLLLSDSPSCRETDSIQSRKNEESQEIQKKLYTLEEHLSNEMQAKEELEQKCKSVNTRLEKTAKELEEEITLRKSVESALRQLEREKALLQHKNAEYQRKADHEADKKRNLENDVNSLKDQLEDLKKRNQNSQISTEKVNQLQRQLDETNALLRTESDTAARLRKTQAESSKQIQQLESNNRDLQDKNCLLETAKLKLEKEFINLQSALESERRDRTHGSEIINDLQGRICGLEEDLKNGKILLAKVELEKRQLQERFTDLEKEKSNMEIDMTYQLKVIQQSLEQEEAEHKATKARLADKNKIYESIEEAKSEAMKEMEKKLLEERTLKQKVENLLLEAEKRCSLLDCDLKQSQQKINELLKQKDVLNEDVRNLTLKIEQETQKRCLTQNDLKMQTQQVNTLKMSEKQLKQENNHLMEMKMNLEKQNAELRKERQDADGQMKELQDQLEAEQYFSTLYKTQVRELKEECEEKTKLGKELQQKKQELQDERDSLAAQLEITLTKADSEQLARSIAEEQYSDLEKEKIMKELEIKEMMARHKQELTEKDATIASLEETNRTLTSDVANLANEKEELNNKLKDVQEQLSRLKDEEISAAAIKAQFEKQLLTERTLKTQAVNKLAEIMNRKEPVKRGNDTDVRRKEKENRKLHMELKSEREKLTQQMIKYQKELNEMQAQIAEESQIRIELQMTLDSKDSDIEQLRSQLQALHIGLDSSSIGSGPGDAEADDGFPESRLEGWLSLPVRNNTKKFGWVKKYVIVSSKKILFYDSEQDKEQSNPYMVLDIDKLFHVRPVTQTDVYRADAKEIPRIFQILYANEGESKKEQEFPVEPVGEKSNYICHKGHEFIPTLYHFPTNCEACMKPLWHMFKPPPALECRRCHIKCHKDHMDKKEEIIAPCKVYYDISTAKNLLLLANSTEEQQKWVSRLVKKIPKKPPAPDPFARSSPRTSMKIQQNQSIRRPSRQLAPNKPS

SMILES | IC50 (ROCK2) [nM] | IC50 [1] [nM]
NCC(C(=O)Nc1cc2ccncc2s1)c1ccc(OCC(CO[N+](=O)[O-])O[N+](=O)[O-])cc1 (centres unmarked) [Example 7, 3-(4-(3-amino-1-oxo-1-(thieno[2,3-c]pyridin-2-ylamino)prop-2-yl)phenoxy)propane-1,2-dinitrate] | 2.19 | 8.8
NC[C@@H](C(=O)Nc1cc2ccncc2s1)c1ccc(CCO[N+](=O)[O-])cc1 [Example 11, (S)-4-(3-amino-1-oxo-1-(thieno[2,3-c]pyridin-2-ylamino)propan-2-yl)phenethyl nitrate] | 6.01 | 21.4
NCC(C(=O)Nc1cc2ccncc2s1)c1ccc(CCO[N+](=O)[O-])cc1 (centres unmarked) [Example 3] | 10.8 | –
NCC(C(=O)Nc1cc2ccncc2s1)c1ccc(CCCO[N+](=O)[O-])cc1 (centres unmarked) [Example 8, 3-(4-(3-amino-1-oxo-1-thieno[2,3-c]pyridin-2-ylamino)prop-2-yl)phenyl)propyl nitrate] | 5.9 | 35.8

More lines, in order of falling IC50 (ROCK2), values ahead:

IC50 (ROCK2) [nM] | IC50 [1] [nM] | SMILES
5.59 | – | NCC(C(=O)Nc1ccc2cnccc2c1)c1ccc(CO[N+](=O)[O-])cc1 (centres unmarked) [Example 2, (3-amino-1-(isoquinolin-6-ylamino)-1-oxoprop-2-yl)benzyl nitrate]
4.62 | – | Cc1ccc(CCO[N+](=O)[O-])cc1C(=O)OCc1ccc([C@@H](CN)C(=O)Nc2cc3ccncc3s2)cc1 [Example 18]
1.58 | – | NC[C@@H](C(=O)Nc1cc2ccncc2s1)c1ccc(COC(=O)CCCCCO[N+](=O)[O-])cc1 [Example 31, (S)-4-(3-amino-1-oxy-1-(thieno[2,3-c]pyridin-2-ylamino)propan-2-yl)benzyl 6-(nitrooxy)hexanoate]
1.51 | 39.5 | NC[C@@H](C(=O)Nc1cc2ccncc2s1)c1ccc(COC(=O)OCCCCO[N+](=O)[O-])cc1 [Example 13, (S)-4-(3-amino-1-oxo-1-(thieno[2,3-c]pyridin-2-ylamino)prop-2-yl)benzyl(4-(nitrooxy)butyl)carbonate]
1.23 | – | NC[C@@H](C(=O)Nc1cc2ccncc2s1)c1ccc(COC(=O)c2cccc(CO[N+](=O)[O-])c2)cc1 [Example 21, (S)-4-(3-amino-1-oxo-1-(thieno[2,3-c]pyridin-2-ylamino)prop-2-yl)benzyl 3-((nitrooxy)methyl)benzoate]
1.02 | 30.3 | NC[C@@H](C(=O)Nc1cc2ccncc2s1)c1ccc(COC(=O)CCCCO[N+](=O)[O-])cc1 [Example 9, (S)-4-(3-amino-1-oxo-1-(thieno[2,3-c]pyridin-2-ylamino)prop-2-yl)benzyl 5-(nitrooxy)valerate]
0.5 | 53 | NC[C@@H](C(=O)Nc1cc2ccncc2s1)c1ccc(CO[N+](=O)[O-])cc1 [Example 1, (S)-4-(3-amino-1-oxo-1-(thieno[2,3-c]pyridin-2-ylamino)prop-2-yl)benzyl nitrate]
